Reference: article PMC7070694, “Identification of New Peptides from Fermented Milk Showing Antioxidant Properties: Mechanism of Action” (Antioxidants, 2020)
Peptide text beside a SMILES is read from it.

Columns and labels:
Caco-2 cell monolayer = assay: Transepithelial transport through Caco-2 cell monolayers (Transwell); format: in vitro ADME; conditions: Caco-2 monolayer on Transwell, 21 days, TEER > 1100 Ω × cm^2, 75 µg peptide in 0.75 mL HBSS apical, 37 °C, RP-HPLC UV 220 nm, mean ± SD, n. d. = not detected with RP-HPLC; for RP-HPLC Estimation AP (%): 120 min after 30 min equilibration, apical compartment, % of total peptide added; for RP-HPLC Estimation BL (%): A-B, 120 min, basolateral compartment, % of initial peptide added apically
Experimental: Caco-2 cells were obtained from DISCOG (University of Padova, Padova, Italy). The cells cultured in DMEM (high glucose) supplemented with 10% FBS, were used between 35 and 60 passages. In order to perform transepithelial transport, 8 × 10^4 cells were seeded on Transwell^© cell culture inserts (0.4 µm pore sizes, 12 mm diameter, 1.12 cm^2 grown surface; Corning Life Sciences, Tewksbury, MA, USA). Cells were grown, differentiated for 21 days and the monolayer integrity was estimated by transepithelial electrical resistance (TEER) (Millicell® ERS-2 volt-ohmmeter, EDM Millipore, Darmstadt, Germany) showing values higher than 1100 Ω × cm^2.
The intestinal barrier crossing capacity of the fractions or synthetic peptides through Caco-2 cells monolayer was evaluated using Transwell® insert model according to Tonolo et al.. Briefly, after 21 days of culturing, Caco-2 cells differentiated forming a monolayer that delimited an upper part (apical compartment) and lower part (basolateral compartment). The monolayer was rinsed three times with Hank’s balanced salt solution (HBSS) and 10 mM D-glucose and equilibrated for 30 min at 37 °C. After, cells were incubated in the presence of 0.75 mL HBSS containing 150 µg fraction or 75 µg peptide in the apical chamber at 37 °C for 120 min. Samples collected from both compartments (apical and basolateral) at different times were centrifuged at 11,600× g, filtered with 0.45 µm filter, frozen and lyophilized. Subsequently, the obtained samples were dissolved in 100 µL of 0.1% TFA aqueous solution and evaluated by RP-HPLC and Matrix assisted laser desorption/ionization- time of flight/time of flight mass spectrometry (MALDI-TOF/TOF MS).
The apical and basolateral compartments were evaluated in RP-HPLC using a column Onyx Monolithic C18 100 mm × 4.6 mm, LC column (Phenomenex, Torrance, CA, USA) with a Waters 2695 Separation Module (Milfold, MA, USA) with a Waters 996 Photodiode Array Detector. Separations were performed with a linear gradient from 0–60% ACN in the presence of 0.1% TFA over 20 min at a constant flow rate of 2 mL/min monitoring the peaks by UV detection (λ = 220 nm).
Subsequently, the obtained fractions were analysed with a MALDI-TOF/TOF 4800 mass spectrometer (AB Sciex, Framingham, MA, USA). After an initial full MS scan, enlargements on the MS signals of interest were acquired. For the basolateral fractions, the samples, after lyophilisation, were dissolved in 50 µL of 25% ACN and 0.1% TFA. The analysis was then performed on 2 µL of these solutions mixed with 2 µL of peptide MALDI matrix α-cyano-4-hydroxycynnamic acid (10 mg/mL aqueous 70% acetonitrile/0.1% TFA). The following analytical conditions were set for MALDI-TOF spectra acquisition: positive ion reflector mode, initial mass range 500–3500 Da (the mass range was then adapted for each enlargement), variable laser intensity (3000–3800), shots/sub-spectrum 50, total shots/spectrum 1500 and accelerating voltage of 20 kV. Final data analysis and fragments identification were done on Data Explorer software (AB Sciex, Framingham, MA, USA), utilizing external mass calibration performed with mass peptide standards (Sigma-Aldrich, St Louis, MO, USA).
In order to evaluate the intestinal crossing capacity of the four peptides, Transwell® insert model peptide absorption, was performed. […] After 10 min and 120 min, apical and basolateral compartments were collected and analyzed by RP-HPLC and mass spectrometry.

[1] = MTT cell viability (cytotoxicity); format: cell-based; conditions: human, Caco-2 cells (1 × 10^4), synthetic peptides 0.05 mg/mL, no TbOOH, mean ± SD of at least three experiments, read-out: Percentage of Cell Viability, None (c)

Row | RP-HPLC Estimation AP (%) (Caco-2 cell monolayer) | RP-HPLC Estimation BL (%) (Caco-2 cell monolayer) | Structure (SMILES) | viability at 24 h, 50 µg/mL [1] [%]
1 | 60.76 ± 8.83 | 0.13 ± 0.04 | CSCC[C@H](NC(=O)[C@@H](NC(=O)[C@@H](NC(=O)[C@@H]1CCCN1C(=O)[C@H](CCC(N)=O)NC(=O)[C@H](C)NC(=O)[C@H](CCC(N)=O)NC(=O)[C@H](CS)NC(=O)[C@H](CO)NC(=O)[C@H](CCCCN)NC(=O)[C@H](C)NC(=O)[C@@H]1CCCN1C(=O)[C@@H](NC(=O)[C@@H](NC(=O)[C@@H](N)CC(N)=O)[C@@H](C)O)C(C)C)[C@@H](C)O)[C@@H](C)O)C(=O)O [N-15-M] (H-NTVPAKSCQAQPTTM-OH) | 108 ± 5.96
2 | 87.59 ± 12.18 | 0.02 ± 0.01 | CC[C@H](C)[C@H](NC(=O)[C@@H]1CCCN1C(=O)CNC(=O)[C@@H](N)CCC(N)=O)C(=O)N[C@H](C(=O)N[C@@H](CC(C)C)C(=O)N[C@@H](CC(N)=O)C(=O)N1CCC[C@H]1C(=O)N[C@@H](Cc1c[nH]c2ccccc12)C(=O)N[C@@H](CC(=O)O)C(=O)N[C@@H](CCC(N)=O)C(=O)N[C@H](C(=O)N[C@@H](CCCCN)C(=O)N[C@@H](CCCNC(=N)N)C(=O)O)C(C)C)C(C)C [Q-14-R] (H-QGPIVLNPWDQVKR-OH) | 115 ± 15.6
3 | 68.4 ± 4.6 | 0.05 ± 0.03 | CC[C@H](C)[C@H](NC(=O)[C@@H]1CCCN1C(=O)[C@H](CC(N)=O)NC(=O)[C@@H]1CCCN1C(=O)[C@@H](NC(=O)[C@H](CC(=O)O)NC(=O)[C@H](CO)NC(=O)[C@H](Cc1ccccc1)NC(=O)[C@H](CO)NC(=O)[C@@H]1CCCN1C(=O)[C@H](C)N)[C@@H](C)CC)C(=O)NCC(=O)N[C@@H](CO)C(=O)N[C@@H](CCC(=O)O)C(=O)N[C@@H](CC(N)=O)C(=O)N[C@@H](CO)C(=O)N[C@@H](CCC(=O)O)C(=O)O [A-17-E] (H-APSFSDIPNPIGSENSE-OH) | 108 ± 13.2
4 | 88.28 ± 5.89 | 0.21 ± 0.01 | CC[C@H](C)[C@H](NC(=O)[C@H](CCCCN)NC(=O)[C@H](CC(=O)O)NC(=O)[C@H](CCC(N)=O)NC(=O)[C@H](CC(C)C)NC(=O)[C@H](CCC(=O)O)NC(=O)[C@H](CC(=O)O)NC(=O)[C@@H](N)CCC(=O)O)C(=O)N[C@@H](Cc1c[nH]cn1)C(=O)N1CCC[C@H]1C(=O)N[C@@H](Cc1ccccc1)C(=O)O [E-11-F] (H-EDELQDKIHPF-OH) | 112 ± 13.5
